In publication PMC8752738, “A propolis-derived small molecule ameliorates metabolic syndrome in obese mice by targeting the CREB/CRTC2 transcriptional complex” (Nature Communications, 2022):
Where “and” joins values, the source holds several entries; their conditions need not be identical. Identical values can stand only once.

System: tissue mRNA levels
Assay: Quantitative PCR of tissue gene expression in treated mice;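 on mRNA levels Retn: daily intraperitoneal dosing for 5 weeks versus vehicle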;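 on mRNA levels Srebf-1c: daily intraperitoneal dosing for 5 weeks versus vehicle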;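 on mRNA levels Srebf-2: daily intraperitoneal dosing for 5 weeks versus vehicle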;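 on mRNA levels Tnfaip2: daily intraperitoneal dosing for 5 weeks versus vehicle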
Format: in vivo, mouse
Set-up: key to mRNA levels Scap / mRNA levels Insig1 / mRNA levels Ldlr / mRNA levels Mttp / mRNA levels Atgl / mRNA levels Tnfaip2 / mRNA levels Rxra / mRNA levels Srebf1 / mRNA levels Ucp2: mRNA level normalized to ribosomal L32 mRNA (internal control)
Protocol: Total RNA from cells and tissues was extracted by Trizol (Invitrogen) and reverse-transcribed into cDNA using the prime script RT reagent kit with gDNA eraser (Takara). The mRNA levels were determined using the SYBR-green PCR kit (Takara) with ABIPRISM 7900HT Sequence detector (ABI) according to the manufacturer’s protocol. The quantitative qPCR primers used in this work are listed in Supplementary Table 1. Ribosomal L32 mRNA levels were used as an internal control.

[1] = Figure 6d, white fat (WF) tissue of DIO mice, individual animals
[2] = db/db mice, liver, individual mouse, relative to VEH
[3] = liver of DIO mice, individual animals, n=5, relative to VEH

For `CC(C)=CCc1cc(C=CC(=O)O)cc(CC=C(C)C)c1O` [APC, 3,5-diprenyl-4-hydroxycinnamic acid], the “mRNA levels Retn” value [1] was 0.123 and 0.143 and 0.2381 and 0.235 and 0.5597 and 0.5846, the “mRNA levels Scd1” value [1] was 0.2084 and 0.3568 and 0.6736 and 0.7934 and 0.506 and 0.7156 and the “mRNA levels Srebf-1c” value [1] was 0.5354 and 0.1144 and 0.4679 and 0.2361 and 0.4842 and 0.3947. The “mRNA levels Srebf-2” value [1] was 0.5798 and 0.5629 and 0.8096 and 0.529 and 0.7852 and 0.6266, the “mRNA levels Tnfaip2” value [1] was 1.35 and 1.386 and 0.7621 and 0.8823 and 0.8616 and 0.7122 and the “Mean Diff. (Veh. vs. treated; head of the quantity not shown, section just before Figure 7h)” value (WT mice, Met 200mg/kg or APC-20) was 0.5814. The “CREB targets in tissues: Brain-Creb, Mean of APC” value (brain, Creb mRNA, group mean) was 1.036, the “CREB targets in tissues: Brain-Creb” value (brain, Creb mRNA, individual animals) was 1.197 and 1.012 and 0.7996 and 1.136 and the “CREB targets in tissues: Brain-Nr4a1, Mean of APC” value (brain, Nr4a1 mRNA, group mean) was 1.211. The “CREB targets in tissues: Brain-Nr4a1” value (brain, Nr4a1 mRNA, individual animals) was 1.274 and 1.137 and 0.9545 and 1.476, the “G6pc mRNA levels in the liver of db/db, Mean of APC” value (db/db mice, liver, group mean) was 0.7471 and the “Pck1 mRNA levels in the liver of db/db, Mean of APC” value (db/db mice, liver, group mean) was 0.6226. For the same compound, the “Pgc1a mRNA levels in the liver of db/db, Mean of APC” value (db/db mice, liver, group mean) was 0.7977, the “Pgc1beta mRNA levels in the liver of db/db, Mean of APC” value (db/db mice, liver, group mean) was 0.5441 and the “G6pc mRNA levels in the liver of db/db” value [2] was 0.8066 and 0.775 and 0.6553 and 0.7287 and 0.77. The “Pck1 mRNA levels in the liver of db/db” value [2] was 0.6945 and 0.6263 and 0.76 and 0.3641 and 0.668, the “Pgc1a mRNA levels in the liver of db/db” value [2] was 0.6615 and 0.9739 and 0.731 and 0.852 and 0.77 and the “Pgc1beta mRNA levels in the liver of db/db” value [2] was 0.4871 and 0.4573 and 0.6546 and 0.4823 and 0.6391. The “CREB targets in tissues: Intestine-Creb, Mean of APC” value (intestine, Creb mRNA, group mean) was 0.8467, the “CREB targets in tissues: Intestine-Creb” value (intestine, Creb mRNA, individual animals) was 1.179 and 0.6319 and 0.7341 and 0.8415 and the “CREB targets in tissues: Intestine-Gcg, Mean of APC” value (intestine, Gcg mRNA, group mean) was 1.011. For the same compound, the “CREB targets in tissues: Intestine-Gcg” value (intestine, Gcg mRNA, individual animals) was 1.309 and 1.259 and 0.7551 and 0.7184, the “CREB targets in tissues: Intestine-Nr4a1, Mean of APC” value (intestine, Nr4a1 mRNA, group mean) was 0.8751 and the “CREB targets in tissues: Intestine-Nr4a1” value (intestine, Nr4a1 mRNA, individual animals) was 0.8692 and 0.9136 and 0.8672 and 0.8504. The “CREB targets in tissues: Kidney-Creb, Mean of APC” value (kidney, Creb mRNA, group mean) was 1.013, the “CREB targets in tissues: Kidney-Creb” value (kidney, Creb mRNA, individual animals) was 1.268 and 1.031 and 0.912 and 0.8402 and the “CREB targets in tissues: Kidney-Nr4a1, Mean of APC” value (kidney, Nr4a1 mRNA, group mean) was 1.291. For the same compound, the “CREB targets in tissues: Kidney-Nr4a1” value (kidney, Nr4a1 mRNA, individual animals) was 1.347 and 1.276 and 1.454 and 1.087, the “mRNA levels of nuclear receptor in the liver of DIO mice: Lxrα” value [3] was 0.586 and 0.8678 and 0.6768 and 0.6509 and 0.6469 and the “mRNA levels of nuclear receptor in the liver of DIO mice: Pparα” value [3] was 0.9724 and 0.9732 and 1.109 and 1.163 and 1.051. The “mRNA levels of nuclear receptor in the liver of DIO mice: Pparγ” value [3] was 1.158 and 1.005 and 1.0158 and 1.1983 and 1.083, the “mRNA levels of nuclear receptor in the liver of DIO mice: Rxrα” value [3] was 0.9006 and 1.063 and 0.8578 and 0.9925 and 1.111 and the “mRNA levels of nuclear receptor in the liver of DIO mice: Lxrα, group mean (Mean 1)” value (liver of DIO mice, mean of N=5) was 0.6857. The “mRNA levels of nuclear receptor in the liver of DIO mice: Pparα, group mean (Mean 1)” value (liver of DIO mice, mean of N=5) was 1.054, the “mRNA levels of nuclear receptor in the liver of DIO mice: Pparγ, group mean (Mean 1)” value (liver of DIO mice, mean of N=5) was 1.092 and the “mRNA levels of nuclear receptor in the liver of DIO mice: Rxrα, group mean (Mean 1)” value (liver of DIO mice, mean of N=5) was 0.9849. The “CREB targets in tissues: Mus-Creb, Mean of APC” value (muscle, Creb mRNA, group mean) was 1.048, the “CREB targets in tissues: Mus-Creb” value (muscle, Creb mRNA, individual animals) was 1.0591 (2×) and 0.9897 and 1.082 and the “CREB targets in tissues: Mus-Nr4a1, Mean of APC” value (muscle, Nr4a1 mRNA, group mean) was 1.244. For the same compound, the “CREB targets in tissues: Mus-Nr4a1” value (muscle, Nr4a1 mRNA, individual animals) was 1.457 (2×) and 0.6913 and 1.369, the “CREB targets in tissues: Mus-Pdk1, Mean of APC” value (muscle, Pdk1 mRNA, group mean) was 0.9489 and the “CREB targets in tissues: Mus-Pdk1” value (muscle, Pdk1 mRNA, individual animals) was 0.9576 (2×) and 0.8606 and 1.02. The “liver mRNA levels of Srebp-1c and 2 in CRTC2 knockout mice” value (oral 20 mg/kg daily, 3 weeks) was “did not further decrease”, the “CREB targets in tissues: Pancreac-C2cd4a, Mean of APC” value (pancreas, C2cd4a mRNA, group mean) was 0.9353 and the “CREB targets in tissues: Pancreac-C2cd4a” value (pancreas, C2cd4a mRNA, individual animals) was 1.193 and 0.8753 and 0.8055 and 0.8678. For the same compound, the “CREB targets in tissues: Pancreac-Creb, Mean of APC” value (pancreas, Creb mRNA, group mean) was 1.238, the “CREB targets in tissues: Pancreac-Creb” value (pancreas, Creb mRNA, individual animals) was 1.233 and 1.182 and 1.267 and 1.269 and the “CREB targets in tissues: Pancreac-Nr4a1, Mean of APC” value (pancreas, Nr4a1 mRNA, group mean) was 1.238. For the same compound, the “CREB targets in tissues: Pancreac-Nr4a1” value (pancreas, Nr4a1 mRNA, individual animals) was 0.9381 and 1.521 and 1.263 and 1.23, the “CREB targets in tissues: Spleen-Creb, Mean of APC” value (spleen, Creb mRNA, group mean) was 1.07 and the “CREB targets in tissues: Spleen-Creb” value (spleen, Creb mRNA, individual animals) was 1.294 and 1.069 and 0.8334 and 1.085. The “CREB targets in tissues: Spleen-Nr4a1, Mean of APC” value (spleen, Nr4a1 mRNA, group mean) was 1.115 and the “CREB targets in tissues: Spleen-Nr4a1” value (spleen, Nr4a1 mRNA, individual animals) was 1.516 and 1.042 and 0.6673 and 1.233.
